# Laboratory results published in patent US10758541B2, “Formulations of milciclib and therapeutic combinations of the same for use in the treatment of cancer” (Tiziana Life Sciences PLC, priority 2017, dated 2020).
# Legend:
# HepG2.2.15 cells = experiment: Wound healing assay; format: cell-based, human; conditions: scratched monolayer of HepG2.2.15 cells, 96 hours, vs vehicle control
# Method: (§1) Cells were seeded at a density of 500,000 cells/2 mL/well on to a collagen-coated 6-well culture plate and incubated overnight in a humidified CO2 incubator at 37° C. to form a uniform monolayer. The monolayer was then scratched in a straight line with a new 10 μL pipette tip across the center of the well. After scratching, cells were washed with sterile PBS once to remove detached cells. Subsequently, wells were replenished with fresh DMEM/F12 containing 2% FBS and the test article either alone or in combination with milciclib. […] Images were analyzed using SlideBook™ 5 software. The values were expressed as a percentage of migration. See Saxena N K, Sharma D, Ding X, et al. Concomitant activation of the JAK/STAT, PI3K/AKT, and ERK signaling is involved in leptin-mediated promotion of invasion and migration of hepatocellular carcinoma cells. Cancer Res. 2007; 67: 2497-2507.
# MHCC97L cells [1] = experiment: Wound healing assay; format: cell-based, human; conditions: scratched monolayer of MHCC97L cells, 96 hours, vs vehicle control
# Method: as §1
# MHCC97H cells [2] = experiment: EMT transwell invasion assay; format: cell-based, human; conditions: agent alone, 10 days, P<0.05
# Method: (§2) EMT (Epithelial to Mesenchymal Transition) induction employing kit from R&D systems (Cat # CCM017)
# (§3) For transwell invasion assay HCC cells were seeded in the top chamber in 6 well transwell plates (Sigma-Aldrich, St. Louis, Mo.) at a density of 100,000 cells/500 μL/well in standard culture media containing 100× StemXVivo® EMT Inducing Media Supplement (R&D systems, Minneapolis, Minn.) and was incubated overnight at 37° C. in humidified CO2 incubator. Next day, EMT inducing media with or without the test articles was added and incubation was continued for 10 days with media changes every 3 days. On the 10th day, the number of cells migrated to the lower chamber was determined using Bio-Rad (Hercules, Calif.) automatic cell counter. Values obtained were expressed as a percentage of invasion and the cell counts of control cells were considered 100%.
# (§4) The invasive potential of cancer cells is dependent on losing epithelial characteristics and acquiring a migratory mesenchymal property referred to as Epithelial to Mesenchymal Transition (EMT).
# MHCC97L cells [3] = experiment: EMT transwell invasion assay; format: cell-based, human; conditions: agent alone, 10 days, P<0.05
# Method: as §2, §3, §4
# MHCC97H cells [4] = experiment: IC50 values by cell proliferation assay (WST-1); format: cell-based, human; conditions: Homo sapiens, MHCC97H, 72 h, individual inhibitor, 72 hours, WST-1; read-out: MHCC97H IC50
# Method: (§5) MHCC97H and MHCC97L (highly metastatic hepatocellular carcinoma cell line, derived from humans)
# Cells (MHCC97H, MHCC97L, and HepG2.2.15) were cultured for 24 hours in 2% FBS and then were trypsinized, resuspended in 2% FBS and seeded in a rat collagen coated 96-well plate at a density of 10,000 cells/100 μl/well, a day before the experiment and cultured at 37° C. in 5% CO2. The cells were treated the next day with milciclib, sorafenib, regorafenib, sunitinib, and lenvatinib, individually or in combination in DMEM/F12+2% FBS+for 72 hours prior to the addition of WST-1 reagent. About 100 μL media was added to control well. […] To determine cell proliferation by the colorimetric test, 10 μL of WST-1 reagent (Sigma Aldrich, St Louis, Mo.) was added in 100 μL cell culture media and incubated for 2 hours in 5% CO2 at 37° C. At the end of incubation period, the plate was placed on a plate shaker for 1 minute and was monitored using a spectrophotometer at an optical density of 450 nm with a reference wavelength of 600 nm using Tecan F200 and iControl software. IC50 values were determined using GraphPad Prism (GraphPad Software, La Jolla, Calif.). Each experiment was performed in duplicate and repeated 2 times.
# MHCC97L cells [5] = experiment: IC50 values by cell proliferation assay (WST-1); format: cell-based; conditions: Homo sapiens, individual inhibitor, 72 hours
# Source text: See Shailubhai, K et al. “Atiprimod is an inhibitor of cancer cell proliferation and angiogenesis.” J Exp Ther Oncol. 2004; 4: 267-279; and Choudhari et al. “Deactivation of Akt and STAT3 signaling promotes apoptosis, inhibits proliferation, and enhances the sensitivity of hepatocellular carcinoma cells to an anticancer agent, atiprimod” Molecular Cancer Therapeutics. 2007; 6: 112-121. References are incorporated herein in their entireties.
# as §5
# Cells (MHCC97H, MHCC97L, and HepG2.2.15) were cultured for 24 hours in 2% FBS and then were trypsinized, resuspended in 2% FBS and seeded in a rat collagen coated 96-well plate at a density of 10,000 cells/100 μl/well, a day before the experiment and cultured at 37° C. in 5% CO2. The cells were treated the next day with milciclib, sorafenib, regorafenib, sunitinib, and lenvatinib, individually or in combination in DMEM/F12+2% FBS+for 72 hours prior to the addition of WST-1 reagent. About 100 μL media was added to control well. After cells had been cultured for 72 hours with different drug concentrations, cells were washed 3 times with sterile 1× Phosphate buffered saline (PBS). To determine cell proliferation by the colorimetric test, 10 μL of WST-1 reagent (Sigma Aldrich, St Louis, Mo.) was added in 100 μL cell culture media and incubated for 2 hours in 5% CO2 at 37° C. At the end of incubation period, the plate was placed on a plate shaker for 1 minute and was monitored using a spectrophotometer at an optical density of 450 nm with a reference wavelength of 600 nm using Tecan F200 and iControl software. IC50 values were determined using GraphPad Prism (GraphPad Software, La Jolla, Calif.). Each experiment was performed in duplicate and repeated 2 times.
# [6] = phase I, cited from earlier work
# Alphafetoprotein (AFP) = experiment: AFP ELISA assay in MHCC97H cells; format: cell-based, human; conditions: 1.3 μM, 72 hours, vs vehicle control
# Method: MHCC97H cells were seeded at a density of 500,000 cells/2 mL/well on a 6 well culture plate and incubated overnight at 37° C. in a humidified CO2 incubator. Cells were then treated with 1.3 μM milciclib or vehicle in DMEM/F12+2% FBS for 72 hours. Subsequently, cells were lysed in RIPA buffer, the supernatant was collected and used to perform ELISA assay as per the manufacturer's instructions. In orthotopic HCC mouse model, levels of serum marker alpha-fetoprotein (AFP) were determined on day 0, 6, 12, 18, 24, 30, 36, 42 and 48 using High Range AFP kit as per manufacturer's instructions.
structure (smiles),measurement,setting,value
"CNC(=O)c1nn(C)c2c1C(C)(C)Cc1cnc(Nc3ccc(N4CCN(C)CC4)cc3)nc1-2 [MILCICLIB, N,1,4,4-tetramethyl-8-((4-(4-methylpiperazin-1-yl)phenyl)amino)-4,5-dihydro-1H-pyrazolo[4,3-h]quinazoline-3-carboxamide]",cell migration,HepG2.2.15 cells,reduced cell migration
same,cell migration,MHCC97L cells [1],reduced cell migration
same,cell migration (EMT assay),MHCC97H cells [2],statistically significant inhibition
same,cell migration (EMT assay),MHCC97L cells [3],statistically significant inhibition
same,IC50,MHCC97H cells [4],1300 nM
same,IC50,MHCC97L cells [5],1000 nM
same,tolerability,"[6]; oral treatment, patients with advanced solid malignancies",well-tolerated
same,RP2D,[6]; oral,150 mg/day
same,major toxicity profile,[6]; reversible upon treatment suspension,tremors and gastrointestinal toxicity
same,AFP levels,Alphafetoprotein (AFP),Appreciably lower
